In patent US4036957A, “Phenoxy compounds in combinations to suppress gastric bleeding in aspirin therapy” (priority 1975, dated 1977):
Like-named read-outs stand apart in the source and are kept apart here.

Key:
[1] = test system: aspirin-induced gastric bleeding; experiment: Prevention of aspirin-induced gastric bleeding in pyloric-ligated rats, i.p. test compound (Examples 1-22); format: in vivo, Female Sprague-Dawley rats; details: rat, aspirin 375 mg/kg p.o.
Description: The prevention of aspirin-induced bleeding in rats was determined by the following procedure. Female Sprague-Dawley rats weighing 150-180 g. were fasted for 24 hours on wire and divided into groups of six animals each. The rats were anesthetized and a ligature placed at the pyloric-duodenal junction. Groups serving as controls received normal saline (4.0 ml/kg, i.p.). […] Some of the compounds were tested at 50 mg/kg, i.p. The rats were sacrificed 60 min. after aspirin administration by cervical dislocation. The volume of the gastric contents was determined and compared against that produced with the same amount of aspirin for change in volume. […] (Gradation between 0 to 40 is on an even scale).

aspirin-induced bleeding = details: rat; for Gastric Bleeding Index / Percent Decrease In Mucosal Hemorrhage vs. Control / Total Hemoglobin Loss / Volume Gastric Secretion: aspirin ca 375 p.o.
Description: The effect of glyceryl guaiacolate (Compound 8) on aspirin-induced bleeding in rats was studied using the following procedure. Female Sprague-Dawley rats, weighing 140-160 g. and fasted for 24 hrs. on wire were divided into groups of 10 animals each. All animals were anesthetized with Metofane® and a ligature placed at the pyloric-duodenal junction. Groups serving as controls received normal saline (4.0 ml/kg, i.p.). Some groups received normal saline and in addition were given aspirin (375 mg/kg, p.o.) in artificial gastric juice; the remaining groups received aspirin in the same amount and also glyceryl guaiacolate 30 min. prior to the aspirin. The aspirin was administered in artificial gastric juice (USP, […]) in a total volume of 2 ml. to each rat. Following a recovery period of 1 hr. the animals received saline, aspirin and glyceryl guaiacolate in the amounts and by the routes indicated. In most of the experiments, 90 min. following aspirin the rats were sacrificed by cervical dislocation. The stomachs were removed and gastric contents collected for further analysis. […] Hemoglobin loss produced by the aspirin was determined by the colorimetric method of Bing and Baker (J. Biol. Chem. 92: 589, 1931). The condition of the gastric mucosa was also assessed by determining the incidence and severity of damage using the scoring system described hereinabove to obtain the "Gastric Bleeding Index".
Following the procedure of Example 26, methocarbamol (Compound 3 ) was tested further in rats via intraperitoneal and intraduodenal administration.

[2] = test system: aspirin-induced gastric bleeding; format: in vivo, cats; details: cat
Description: Fasted cats weighing […] were anesthetized with phenobarbital sodium (130 mg/kg, i.p.). Glyceryl guaiacolate was administered intravenously for a total of 2 hrs. beginning 60 min. prior to the topical application of the aspirin (10 mg) to the gastric mucosa. Throughout the experiment, artificial gastric juice (USP, pH 1.3) bathed the mucosa by means of the specially designed chamber. The number of bleeding sites occurring at various exposure sites were recorded at 15, 30 and 60 min. Glyceryl guaiacolate was given at doses of 10 and 30 mg/kg/hr via a previously cannulated jugular vein using an infusion pump (Harvard Apparatus Co., Model 1202). […] An important point is that with 30 mg/kg/hr, i.v., of glyercyl guaiacolate there was no bleeding at 30 min. compared with an average of 14 bleeding sites when no glyceryl guaiacolate was adminsitered. A total of 23 cats were used and there was a minimum of 24 aspirin exposure sites for each dose of glyceryl guaiacolate.

[3] = 50 mg/kg i.p., Series 2, ± S.E.
[4] = 50 mg/kg oral, Series 3, ± S.E.
[5] = 100 mg/kg i.p., Series 1, ± S.E., P <0.05
[6] = 100 mg/kg i.p., Series 1, P <0.05
[7] = 100 mg/kg intraduodenal, ± S.E., P <0.05
[8] = 100 mg/kg intraduodenal, P <0.05
[9] = 100 mg/kg oral, Series 3, ± S.E.
[10] = 200 mg/kg i.p., Series 2, ± S.E., P <0.05
[11] = 200 mg/kg i.p., Series 2, P <0.05
[12] = 200 mg/kg intraduodenal, ± S.E., P <0.05
[13] = 200 mg/kg intraduodenal, P <0.05
[14] = 200 mg/kg oral, Series 3, ± S.E.

SMILES: COc1ccccc1OCC(O)CO (stereo not drawn) [Compound 8, 3-(2-methoxyphenoxy)-1,2-propanediol]
- change in vivo at 50 mg/kg ([1]; ip, 1 h, 50 mg/kg i.p., read-out: Percent Decrease in Mucosal Bleeding vs Control): -57%
- change in vivo at 100 mg/kg ([1]; ip, 1 h, 100 mg/kg i.p., read-out: Percent Decrease in Mucosal Bleeding vs Control): -40%
- Gastric Bleeding Index ([1]; score 0 to 40, 100 mg/kg i.p. (column head states no dose)): 26.1
- effect on pH (gastric) (aspirin-induced bleeding): a similar effect on pH was not observed
- volume of gastric secretion (in words) (aspirin-induced bleeding): significant reduction
- Gastric Bleeding Index (aspirin-induced bleeding; 50 mg/kg i.p., Series 2): 26.0 ± 2.6
- Percent Decrease In Mucosal Hemorrhage vs. Control (aspirin-induced bleeding; 50 mg/kg i.p., Series 2): 13.3%
- Total Hemoglobin Loss (aspirin-induced bleeding; [3]): 26.7 ± 3.1 mg
- Volume Gastric Secretion (aspirin-induced bleeding; [3]): 6.4 ± 0.4 mL
- Gastric Bleeding Index (aspirin-induced bleeding; 50 mg/kg intraduodenal): 18.0 ± 4.1
- Percent Decrease In Mucosal Hemorrhage vs. Control (aspirin-induced bleeding; 50 mg/kg intraduodenal): 10.0%
- Total Hemoglobin Loss (aspirin-induced bleeding; 50 mg/kg intraduodenal, ± S.E.): 12.4 ± 2.3 mg
- Volume Gastric Secretion (aspirin-induced bleeding; 50 mg/kg intraduodenal, ± S.E.): 5.0 ± 0.2 mL
- Gastric Bleeding Index (aspirin-induced bleeding; 50 mg/kg oral, Series 3): 30.5 ± 2.4
- Percent Decrease In Mucosal Hemorrhage vs. Control (aspirin-induced bleeding; 50 mg/kg oral, Series 3): 14.2%
- Total Hemoglobin Loss (aspirin-induced bleeding; [4]): 29.4 ± 3.2 mg
- Volume Gastric Secretion (aspirin-induced bleeding; [4]): 8.0 ± 0.3 mL
- Total Hemoglobin Loss (aspirin-induced bleeding; [5]): 8.2 ± 2.5 mg
- Volume Gastric Secretion (aspirin-induced bleeding; [5]): 4.2 ± 0.4 mL
- Gastric Bleeding Index (aspirin-induced bleeding; [6]): 6.5 ± 4.7
- Percent Decrease In Mucosal Hemorrhage vs. Control (aspirin-induced bleeding; [6]): 77%
- Total Hemoglobin Loss (aspirin-induced bleeding; [7]): 7.7 ± 1.2 mg
- Volume Gastric Secretion (aspirin-induced bleeding; [7]): 3.9 ± 0.2 mL
- Gastric Bleeding Index (aspirin-induced bleeding; [8]): 9.5 ± 2.5
- Percent Decrease In Mucosal Hemorrhage vs. Control (aspirin-induced bleeding; [8]): 57.5%
- Gastric Bleeding Index (aspirin-induced bleeding; 100 mg/kg oral, Series 3): 21.0 ± 2.7
- Percent Decrease In Mucosal Hemorrhage vs. Control (aspirin-induced bleeding; 100 mg/kg oral, Series 3): 41.5%
- Total Hemoglobin Loss (aspirin-induced bleeding; [9]): 26.2 ± 4.6 mg
- Volume Gastric Secretion (aspirin-induced bleeding; [9]): 6.5 ± 0.3 mL
- Total Hemoglobin Loss (aspirin-induced bleeding; [10]): 14.5 ± 3.9 mg
- Volume Gastric Secretion (aspirin-induced bleeding; [10]): 4.1 ± 0.4 mL
- Gastric Bleeding Index (aspirin-induced bleeding; [11]): 6.0 ± 2.1
- Percent Decrease In Mucosal Hemorrhage vs. Control (aspirin-induced bleeding; [11]): 80.0%
- Total Hemoglobin Loss (aspirin-induced bleeding; [12]): 4.4 ± 1.0 mg
- Volume Gastric Secretion (aspirin-induced bleeding; [12]): 3.5 ± 0.3 mL
- Gastric Bleeding Index (aspirin-induced bleeding; [13]): 2.0 ± 1.1
- Percent Decrease In Mucosal Hemorrhage vs. Control (aspirin-induced bleeding; [13]): 90.0%
- Percent Decrease In Mucosal Hemorrhage vs. Control (aspirin-induced bleeding; 200 mg/kg oral, Series 3): 46.5%
- Total Hemoglobin Loss (aspirin-induced bleeding; [14]): 20.2 ± 1.5 mg
- Volume Gastric Secretion (aspirin-induced bleeding; [14]): 6.5 ± 0.5 mL
- Gastric Bleeding Index (aspirin-induced bleeding; 200 mg/kg oral, Series 3, P <0.05): 19.0 ± 3.9
- loss of blood into the gastric contents (aspirin-induced bleeding; 100 and 200 mg/kg): markedly reduced
- aspirin-induced gastric irritation (aspirin-induced bleeding; 100 and 200 mg/kg by any route): markedly reduced
- bleeding at 30 min ([2]; 30 mg/kg/hr i.v., aspirin 10 mg topical): no bleeding
- gastric bleeding produced by aspirin with increasing doses ([2]; 10 and 30 mg/kg/hr i.v.): correspondingly reduced
